One assay addresses T1, JMJD2C (Homo sapiens, UniProt Q9H3R0).
T1 construct: purchased BPS Bioscience 50105
T1 sequence (Q9H3R0 2-372): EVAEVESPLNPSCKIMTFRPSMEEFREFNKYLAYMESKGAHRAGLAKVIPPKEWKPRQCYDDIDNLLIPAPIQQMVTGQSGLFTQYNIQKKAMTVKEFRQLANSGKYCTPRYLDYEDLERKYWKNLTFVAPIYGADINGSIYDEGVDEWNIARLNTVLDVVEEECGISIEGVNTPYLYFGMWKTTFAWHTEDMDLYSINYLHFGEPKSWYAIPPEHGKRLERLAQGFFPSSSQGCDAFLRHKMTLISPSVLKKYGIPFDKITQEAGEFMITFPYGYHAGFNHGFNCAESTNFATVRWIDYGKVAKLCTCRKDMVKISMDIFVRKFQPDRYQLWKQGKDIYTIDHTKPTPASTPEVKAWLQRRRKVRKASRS
Kind of assay: JMJD2C in vitro enzyme inhibition assay (TR-FRET). The class given is biochemical. An excerpt:
(§1) This assay determines the ability of a test compound to inhibit Jarid1A, Jarid1B, and JMJD2C demethylase activity. Baculovirus expressed Jarid1A (GenBank Accession #NM_001042603, AA1-1090) was purchased from BPS Bioscience (Cat#50110). Baculovirus expressed Jarid1B (GenBank Accession #NM_006618, AA 2-751) was purchased from BPS Bioscience (Cat #50121) or custom made by MolecularThroughput. Baculovirus expressed JMJD2C (GenBank Accession #BC143571, AA 2-372) was purchased from BPS Bioscience (Cat#50105).
The ability of test compounds to inhibit the activity of JMJD2C was determined in 384-well plate format under the following reaction conditions: 0.3 nM JMJD2C, 300 nM H3K9me3-biotin labeled peptide (Anaspec cat #64360), 2 μM alpha-ketoglutaric acid in assay buffer of 50 mM HEPES, pH7.3, 0.005% Brij35, 0.5 mM TCEP, 0.2 mg/ml BSA, 50 μM sodium L-ascorbate, and 2 μM ammonium iron(II) sulfate. Reaction product was determined quantitatively by TR-FRET after the addition of detection reagent Phycolink Streptavidin-allophycocyanin (Prozyme) and Europium-anti-di-methylated histone H3 lysine 9 (H3K9me2) antibody (PerkinElmer) in the presence of 5 mM EDTA in LANCE detection buffer (PerkinElmer) at a final concentration of 50 nM and 1 nM, respectively.
(§2) The assay reaction was initiated by the following: 2 μl of the mixture of 900 nM H3K9me3-biotin labeled peptide and 6 μM alpha-ketoglutaric acid with 2 μl of 11-point serial diluted inhibitor in 3% DMSO were added to each well of the plate, followed by the addition of 2 μl of 0.9 nM JMJD2C to initiate the reaction. The reaction mixture was incubated at room temperature for 30 minutes, and terminated by the addition of 6 μl of 5 mM EDTA in LANCE detection buffer containing 100 nM Phycolink Streptavidin-allophycocyanin and 2 nM Europium-anti-H3K9me2 antibody. Plates were read by EnVisionMultilabel Reader in TR-FRET mode (excitation at 320 nm, emission at 615 nm and 665 nm) after 1 hour incubation at room temperature. A ratio was calculated (665/615) for each well and fitted to determine inhibition constant (IC50).

The target of the next assay is T2, Jarid1B (Homo sapiens, UniProt Q9UGL1).
T2 construct: purchased BPS Bioscience or custom made by MolecularThroughput 50121
T2 sequence (Q9UGL1 2-751): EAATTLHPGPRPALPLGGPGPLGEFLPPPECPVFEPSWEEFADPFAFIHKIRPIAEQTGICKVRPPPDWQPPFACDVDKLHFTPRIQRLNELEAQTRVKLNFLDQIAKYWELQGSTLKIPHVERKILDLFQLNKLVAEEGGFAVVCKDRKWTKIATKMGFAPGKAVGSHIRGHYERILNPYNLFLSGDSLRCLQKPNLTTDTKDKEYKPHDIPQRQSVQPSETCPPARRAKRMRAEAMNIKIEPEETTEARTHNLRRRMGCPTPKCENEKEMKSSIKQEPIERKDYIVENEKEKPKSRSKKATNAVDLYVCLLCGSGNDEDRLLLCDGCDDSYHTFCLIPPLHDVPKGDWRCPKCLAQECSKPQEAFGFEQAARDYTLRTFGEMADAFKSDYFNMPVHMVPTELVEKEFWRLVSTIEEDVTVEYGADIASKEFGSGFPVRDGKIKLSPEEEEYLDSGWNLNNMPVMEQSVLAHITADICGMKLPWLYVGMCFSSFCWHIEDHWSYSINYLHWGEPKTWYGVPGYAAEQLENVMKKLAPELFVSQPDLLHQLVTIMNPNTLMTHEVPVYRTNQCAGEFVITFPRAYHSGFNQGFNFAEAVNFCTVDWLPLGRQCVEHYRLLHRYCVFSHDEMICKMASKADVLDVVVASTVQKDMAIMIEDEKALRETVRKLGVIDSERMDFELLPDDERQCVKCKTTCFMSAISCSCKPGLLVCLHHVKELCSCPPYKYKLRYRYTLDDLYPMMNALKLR
The assay can be described thus: Jarid1B in vitro enzyme inhibition assay (TR-FRET). It is filed as biochemical.
From the text: as §1
The ability of test compounds to inhibit the activity of Jarid1B was determined in 384-well plate format under the following reaction conditions: 0.8 nM Jarid1B, 300 nM H3K4me3-biotin labeled peptide (Anaspec cat #64357), 2 μM alpha-ketoglutaric acid in assay buffer of 50 mM HEPES, pH7.3, 0.005% Brij35, 0.5 mM TCEP, 0.2 mg/ml BSA, 50 μM sodium L-ascorbate, and 2 μM ammonium iron(II) sulfate. Reaction product was determined quantitatively by TR-FRET after the addition of detection reagent Phycolink Streptavidin-allophycocyanin (Prozyme) and Europium-anti-mono-or di-methylated histone H3 lysine 4 (H3K4me1-2) antibody (PerkinElmer) in the presence of 5 mM EDTA in LANCE detection buffer (PerkinElmer) at a final concentration of 25 nM and 1 nM, respectively.
as §2, with “nM H3K4me3-biotin” for “nM H3K9me3-biotin”, “DMSO was” for “DMSO were”, “of 2.4” for “of 0.9”, “nM Jarid1B” for “nM JMJD2C”, “containing 50” for “containing 100”, “nM Europium-anti-H3K4me1-2” for “nM Europium-anti-H3K9me2”

With `CN(C)c1ccc(Oc2nc(O)c3ccncc3n2)cc1` [Example 59, 2-[4-(dimethylamino)phenoxy]pyrido[3,4-d]pyrimidin-4-ol], the figures for the IC50 at JMJD2C and at Jarid1B were 100 to 1000 nM and not above 100 nM, respectively.

`CCn1ncc2ccc(Oc3nc(O)c4ccnc(-c5cn(C)cn5)c4n3)cc21` [Example 84, 2-(1-ethylindazol-6-yl)oxy-8-(1-methylimidazol-4-yl)pyrido[3,4-d]pyrimidin-4-ol]: the half-inhibitory concentration (IC50) against JMJD2C was 100 to 1000 nM; at Jarid1B, not above 100 nM.

Turning to `COc1c(F)cc(Oc2nc(O)c3ccncc3n2)cc1F` [Example 43, 2-(3,5-difluoro-4-methoxyphenoxy)pyrido[3,4-d]pyrimidin-4-ol], the IC50 against JMJD2C was 100 to 1000 nM; at Jarid1B it was not above 100 nM.

Regarding `Cn1cnc(-c2nccc3c(O)nc(Oc4cnn(Cc5ccccc5)c4)nc23)c1` [Example 79, 2-(1-benzylpyrazol-4-yl)oxy-8-(1-methylimidazol-4-yl)pyrido[3,4-d]pyrimidin-4-ol], the IC50 against JMJD2C is 100 to 1000 nM; against Jarid1B, not above 100 nM.

In the case of `Oc1nc(OCC(F)(F)F)nc2cnccc12` [Example 12, 2-(2,2,2-trifluoroethoxy)pyrido[3,4-d]pyrimidin-4-ol], the IC50 on JMJD2C and against Jarid1B was 100 to 1000 nM throughout.

For the compound `CC(C)CCn1cc(Oc2nc(O)c3ccncc3n2)cn1` [Example 55, 2-{[1-(3-methylbutyl)pyrazol-4-yl]oxy}pyrido[3,4-d]pyrimidin-4-ol], the concentration for half-maximal inhibition (IC50) at JMJD2C and against Jarid1B was not above 100 nM throughout.

For the compound `Oc1nc(Oc2cccc(C(F)(F)F)c2)nc2cnccc12` [Example 52, 2-[3-(trifluoromethyl)phenoxy]pyrido[3,4-d]pyrimidin-4-ol], the half-maximal inhibitory concentration (IC50) was 100 to 1000 nM at JMJD2C and not above 100 nM at Jarid1B.

Turning to `Cn1cnc(-c2nccc3c(O)nc(Oc4ccc(F)c(F)c4)nc23)c1` [Example 81, 2-(3,4-difluorophenoxy)-8-(1-methylimidazol-4-yl)pyrido[3,4-d]pyrimidin-4-ol], the concentration for half-maximal inhibition (IC50) against JMJD2C was 100 to 1000 nM; at Jarid1B, not above 100 nM.

Take `O=C(c1ccc(F)cc1)N1CCC(n2cc(Oc3nc(O)c4ccncc4n3)cn2)CC1` [Example 93, (4-fluorophenyl)-[4-[4-(4-hydroxypyrido[3,4-d]pyrimidin-2-yl)oxypyrazol-1-yl]piperidin-1-yl]methanone]: the IC50 against JMJD2C and against Jarid1B was not above 100 nM in each case.

`COCCOc1ccc(Oc2nc(O)c3ccnc(-c4cn(C)cn4)c3n2)cc1` [Example 82, 2-[4-(2-methoxyethoxy)phenoxy]-8-(1-methylimidazol-4-yl)pyrido[3,4-d]pyrimidin-4-ol]: the half-maximal inhibitory concentration (IC50) at JMJD2C was 100 to 1000 nM; against Jarid1B it was not above 100 nM.

Take `Oc1nc(Oc2cccc(Cl)c2)nc2cnccc12` [Example 41, 2-(3-chlorophenoxy)pyrido[3,4-d]pyrimidin-4-ol]: the figures for the IC50 at JMJD2C and on Jarid1B were 100 to 1000 nM and not above 100 nM, respectively.

Turning to `Oc1nc(OCc2ccccc2)nc2cnccc12` [Example 4, 2-phenylmethoxypyrido[3,4-d]pyrimidin-4-ol], the 50% inhibitory concentration (IC50) against JMJD2C and against Jarid1B was 100 to 1000 nM throughout.

Take `Cn1cnc(-c2nccc3c(O)nc(OCC4CCOCC4)nc23)c1` [Example 102, 8-(1-methyl-1H-imidazol-4-yl)-2-(oxan-4-ylmethoxy)pyrido[3,4-d]pyrimidin-4-ol]: the values for the IC50 against JMJD2C and on Jarid1B were not above 100 nM and 100 to 1000 nM, respectively.

`CC(=O)Nc1ccc(Oc2nc(O)c3ccncc3n2)cc1` [Example 35, N-[4-(4-hydroxypyrido[3,4-d]pyrimidin-2-yl)oxyphenyl]acetamide]: the 50% inhibitory concentration (IC50) at JMJD2C is 100 to 1000 nM; against Jarid1B, not above 100 nM.

For `Oc1nc(Oc2cccc(F)c2)nc2cnccc12` [Example 40, 2-(3-fluorophenoxy)pyrido[3,4-d]pyrimidin-4-ol], the IC50 against JMJD2C and at Jarid1B was not above 100 nM in each case.

Take `Cn1cnc(-c2nccc3c(O)nc(OCc4ccc(F)cc4)nc23)c1` [Example 71, 2-[(4-fluorobenzyl)oxy]-8-(1-methyl-1H-imidazol-4-yl)pyrido[3,4-d]pyrimidin-4-ol]: the IC50 against JMJD2C was 100 to 1000 nM; against Jarid1B, not above 100 nM.

Regarding `CC(=O)N1CCC(n2cc(Oc3nc(O)c4ccncc4n3)cn2)CC1` [Example 90, 1-[4-[4-(4-hydroxypyrido[3,4-d]pyrimidin-2-yl)oxypyrazol-1-yl]piperidin-1-yl]ethanone], the IC50 at JMJD2C and on Jarid1B was not above 100 nM throughout.

`Oc1nc(Oc2ccnc(N3CCOCC3)c2)nc2cnccc12` [Example 97, 2-(2-morpholin-4-ylpyridin-4-yl)oxypyrido[3,4-d]pyrimidin-4-ol]: the concentration for half-maximal inhibition (IC50) at JMJD2C is 100 to 1000 nM; against Jarid1B, not above 100 nM.

With `Cn1cnc(-c2nccc3c(O)nc(OCC(C)(C)O)nc23)c1` [Example 98, 2-(2-hydroxy-2-methylpropoxy)-8-(1-methylimidazol-4-yl)pyrido[3,4-d]pyrimidin-4-ol], the IC50 at JMJD2C is 1000 to 10000 nM; at Jarid1B, 100 to 1000 nM.

`CC(C)(C)OC(=O)N1CCC(n2cc(Oc3nc(O)c4ccncc4n3)cn2)CC1` [Example 88, tert-butyl 4-[4-(4-hydroxypyrido[3,4-d]pyrimidin-2-yl)oxypyrazol-1-yl]piperidine-1-carboxylate]: the IC50 is 100 to 1000 nM at JMJD2C and not above 100 nM against Jarid1B.

`CC(C)n1cc(Oc2nc3cnccc3c(=O)[nH]2)cn1` [Example 63, 2-{[1-(propan-2-yl)-1H-pyrazol-4-yl]oxy}pyrido[3,4-d]pyrimidin-4-ol]: the figures for the IC50 against JMJD2C and against Jarid1B were 100 to 1000 nM and not above 100 nM, respectively.

For `Oc1nc(Oc2ccc(F)cc2)nc2cnccc12` [Example 47, 2-(4-fluorophenoxy)pyrido[3,4-d]pyrimidin-4-ol], the IC50 was 100 to 1000 nM at JMJD2C and not above 100 nM against Jarid1B.
